Several values for one entry are separate records, joined by “and”; a condition that tells them apart may be missing. Equal entries are not always repeated. Where two headings read alike, the source gives them in different places.
Assays:
NR1/NR2A = NR1/NR2A (Rattus norvegicus, UniProt P35439+Q00959); assay: Two electrode voltage clamp recording from Xenopus laevis oocytes; assay type: cell-based; details: relative to maximal glycine (100 μM), 100 μM glutamate
NR1/NR2B = NR1/NR2B (Rattus norvegicus, UniProt P35439+Q00960); assay: as above; assay type: cell-based; details: relative to maximal glycine (100 μM), 100 μM glutamate
NR1/NR2C [1] = molecular target: T1, NR1/NR2C (Rattus norvegicus, UniProt P35439+Q00961); assay: as above; assay type: cell-based
T1 sequence (Q00961 20-1237, other chains not shown): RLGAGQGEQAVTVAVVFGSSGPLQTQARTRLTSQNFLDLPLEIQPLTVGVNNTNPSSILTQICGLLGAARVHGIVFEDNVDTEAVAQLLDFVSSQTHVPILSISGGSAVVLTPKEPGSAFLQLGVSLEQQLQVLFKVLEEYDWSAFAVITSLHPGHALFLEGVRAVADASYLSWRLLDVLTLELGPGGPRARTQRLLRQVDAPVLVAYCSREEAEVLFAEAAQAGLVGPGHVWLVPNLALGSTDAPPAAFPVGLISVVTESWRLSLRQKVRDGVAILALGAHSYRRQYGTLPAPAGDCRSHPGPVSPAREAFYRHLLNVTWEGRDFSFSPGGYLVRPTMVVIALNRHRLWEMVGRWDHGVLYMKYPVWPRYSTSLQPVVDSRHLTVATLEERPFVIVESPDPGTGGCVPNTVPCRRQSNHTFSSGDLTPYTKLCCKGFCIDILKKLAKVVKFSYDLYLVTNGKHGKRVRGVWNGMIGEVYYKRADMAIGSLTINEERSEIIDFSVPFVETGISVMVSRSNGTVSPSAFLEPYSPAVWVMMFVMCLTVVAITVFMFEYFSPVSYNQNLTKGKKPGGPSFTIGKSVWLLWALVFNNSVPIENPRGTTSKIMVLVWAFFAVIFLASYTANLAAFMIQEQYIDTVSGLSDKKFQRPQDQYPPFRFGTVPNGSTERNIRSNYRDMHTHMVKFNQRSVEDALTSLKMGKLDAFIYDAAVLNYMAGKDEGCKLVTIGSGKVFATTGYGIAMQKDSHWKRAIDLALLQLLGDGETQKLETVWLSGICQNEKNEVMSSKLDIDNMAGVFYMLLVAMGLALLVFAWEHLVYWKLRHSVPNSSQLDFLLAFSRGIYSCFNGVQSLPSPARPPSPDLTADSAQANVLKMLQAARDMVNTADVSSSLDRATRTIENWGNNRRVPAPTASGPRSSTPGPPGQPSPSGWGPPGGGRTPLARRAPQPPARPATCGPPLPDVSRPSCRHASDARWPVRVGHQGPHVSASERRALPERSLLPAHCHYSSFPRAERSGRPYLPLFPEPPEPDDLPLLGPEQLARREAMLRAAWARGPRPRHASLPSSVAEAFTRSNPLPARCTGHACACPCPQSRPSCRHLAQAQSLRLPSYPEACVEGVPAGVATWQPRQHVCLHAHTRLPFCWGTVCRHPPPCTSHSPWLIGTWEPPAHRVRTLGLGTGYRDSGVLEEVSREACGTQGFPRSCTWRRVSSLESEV

NR1/NR2D = NR1/NR2D (Rattus norvegicus, UniProt P35439+Q62645); assay: as above; assay type: cell-based; details: relative to maximal glycine (100 μM), 100 μM glutamate
NR1(R523A)/NR2B = NR1(R523A)/NR2B (Rattus norvegicus, UniProt P35439+Q00960, R523A); assay: TEVC recording from Xenopus oocytes, mutant receptor; assay type: cell-based
NR1(R523A)/NR2C = NR1(R523A)/NR2C (Rattus norvegicus, UniProt P35439+Q00961, R523A); assay: as above; assay type: cell-based
NR1(R523A)/NR2C, sequence (Q00961 20-1237, other chains not shown): as above

NR1/NR2B(R693A) = NR1/NR2B(R693A) (Rattus norvegicus, UniProt P35439+Q00960, R693A); assay: as above; assay type: cell-based
NR1/NR2C(R703A) = NR1/NR2C(R703A) (Rattus norvegicus, UniProt P35439+Q00961, R690A); assay: as above; assay type: cell-based
NR1/NR2C(R703A), sequence (Q00961 20-1237 R690A, other chains not shown): as the sequence (Q00961 20-1237, other chains not shown) above, with R671A counted along it

NR1/NR2A(E798Q) = NR1/NR2A(E798Q) (Rattus norvegicus, UniProt P35439+Q00959, E789Q); assay: as above; assay type: cell-based
NR1/NR2B(E790Q) = NR1/NR2B(E790Q) (Rattus norvegicus, UniProt P35439+Q00960, E790Q); assay: as above; assay type: cell-based
NR1/NR2C(Q800E) = NR1/NR2C(Q800E) (Rattus norvegicus, UniProt P35439+Q00961, Q787E); assay: as above; assay type: cell-based
NR1/NR2C(Q800E), sequence (Q00961 20-1237 Q787E, other chains not shown): as the sequence (Q00961 20-1237, other chains not shown) above, with Q768E counted along it

NR1/NR2D(E791Q) = NR1/NR2D(E791Q) (Rattus norvegicus, UniProt P35439+Q62645, E814Q); assay: as above; assay type: cell-based
NR1/NR2B(E790A) = NR1/NR2B(E790A) (Rattus norvegicus, UniProt P35439+Q00960, E790A); assay: as above; assay type: cell-based
NR1/NR2C(Q800A) = NR1/NR2C(Q800A) (Rattus norvegicus, UniProt P35439+Q00961, Q787A); assay: as above; assay type: cell-based
NR1/NR2C(Q800A), sequence (Q00961 20-1237 Q787A, other chains not shown): as the sequence (Q00961 20-1237, other chains not shown) above, with Q768A counted along it

NR1(Y692A)/NR2A = NR1(Y692A)/NR2A (Rattus norvegicus, UniProt P35439+Q00959, Y692A); assay: as above; assay type: cell-based
NR1(Y692A)/NR2A, sequence (Q00959 23-1464, other chains not shown): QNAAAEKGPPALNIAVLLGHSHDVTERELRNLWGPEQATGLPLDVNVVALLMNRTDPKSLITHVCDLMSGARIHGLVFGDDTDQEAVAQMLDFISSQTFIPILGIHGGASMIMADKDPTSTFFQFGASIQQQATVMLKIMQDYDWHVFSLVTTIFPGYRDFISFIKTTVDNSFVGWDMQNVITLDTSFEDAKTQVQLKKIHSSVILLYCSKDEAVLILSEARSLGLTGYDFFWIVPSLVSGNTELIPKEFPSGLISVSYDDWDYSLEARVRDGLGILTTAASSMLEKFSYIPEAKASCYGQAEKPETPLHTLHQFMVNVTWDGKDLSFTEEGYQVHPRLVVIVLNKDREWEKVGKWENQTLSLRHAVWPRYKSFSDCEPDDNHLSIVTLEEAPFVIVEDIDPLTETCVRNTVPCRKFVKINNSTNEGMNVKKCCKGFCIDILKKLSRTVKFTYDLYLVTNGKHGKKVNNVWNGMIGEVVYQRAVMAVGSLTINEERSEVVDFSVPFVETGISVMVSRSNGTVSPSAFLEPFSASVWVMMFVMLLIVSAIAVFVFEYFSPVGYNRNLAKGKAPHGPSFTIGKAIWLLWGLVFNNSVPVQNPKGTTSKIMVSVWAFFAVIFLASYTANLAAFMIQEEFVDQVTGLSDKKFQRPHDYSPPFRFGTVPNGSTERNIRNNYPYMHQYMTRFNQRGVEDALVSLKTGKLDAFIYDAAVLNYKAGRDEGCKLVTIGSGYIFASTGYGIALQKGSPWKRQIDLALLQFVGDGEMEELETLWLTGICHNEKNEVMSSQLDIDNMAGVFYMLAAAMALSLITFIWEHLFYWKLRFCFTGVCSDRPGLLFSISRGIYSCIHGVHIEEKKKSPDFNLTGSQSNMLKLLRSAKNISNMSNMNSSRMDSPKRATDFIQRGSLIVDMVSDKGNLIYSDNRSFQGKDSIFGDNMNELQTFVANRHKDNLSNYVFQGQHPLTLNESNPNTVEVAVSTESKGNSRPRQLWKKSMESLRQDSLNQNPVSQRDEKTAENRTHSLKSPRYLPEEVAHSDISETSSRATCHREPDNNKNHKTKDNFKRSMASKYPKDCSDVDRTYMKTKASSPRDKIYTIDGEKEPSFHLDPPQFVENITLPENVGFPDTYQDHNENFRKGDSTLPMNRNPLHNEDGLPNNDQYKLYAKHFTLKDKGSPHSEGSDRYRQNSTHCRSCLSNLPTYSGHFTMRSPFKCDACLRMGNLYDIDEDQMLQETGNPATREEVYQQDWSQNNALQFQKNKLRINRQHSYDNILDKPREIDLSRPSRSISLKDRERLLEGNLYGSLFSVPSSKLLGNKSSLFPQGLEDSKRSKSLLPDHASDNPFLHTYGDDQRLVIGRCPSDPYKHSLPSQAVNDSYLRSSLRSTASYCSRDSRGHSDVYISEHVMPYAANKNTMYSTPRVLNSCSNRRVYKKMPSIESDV

NR1(Y692A)/NR2B = NR1(Y692A)/NR2B (Rattus norvegicus, UniProt P35439+Q00960, Y692A); assay: as above; assay type: cell-based
NR1(Y692A)/NR2C = NR1(Y692A)/NR2C (Rattus norvegicus, UniProt P35439+Q00961, Y692A); assay: as above; assay type: cell-based
NR1(Y692A)/NR2C, sequence (Q00961 20-1237, other chains not shown): as the sequence (Q00961 20-1237, other chains not shown) above

NR1(Y692A)/NR2D = NR1(Y692A)/NR2D (Rattus norvegicus, UniProt P35439+Q62645, Y692A); assay: as above; assay type: cell-based
NR1(R755A)/NR2C = NR1(R755A)/NR2C (Rattus norvegicus, UniProt P35439+Q00961, R755A); assay: as above; assay type: cell-based
NR1(R755A)/NR2C, sequence (Q00961 20-1237, other chains not shown): as above

NR1/NR2C(S707N,R710P) = NR1/NR2C(S707N,R710P) (Rattus norvegicus, UniProt P35439+Q00961, R697P/S694N); assay: as above; assay type: cell-based
NR1/NR2C(S707N,R710P), sequence (Q00961 20-1237 S694N/R697P, other chains not shown): as the sequence (Q00961 20-1237, other chains not shown) above, with S675N, R678P counted along it

NR1(E781A)/NR2B = NR1(E781A)/NR2B (Rattus norvegicus, UniProt P35439+Q00960, E781A); assay: as above; assay type: cell-based
NR1(E781A)/NR2C = NR1(E781A)/NR2C (Rattus norvegicus, UniProt P35439+Q00961, E781A); assay: as above; assay type: cell-based
NR1(E781A)/NR2C, sequence (Q00961 20-1237, other chains not shown): as the sequence (Q00961 20-1237, other chains not shown) above

NR1/NR2C [2] = molecular target: T1, NR1/NR2C; assay type: cell-based
NR1/NR2C [3] = molecular target: T1, NR1/NR2C; assay: Single-channel recording from outside-out patches containing one active channel; assay type: cell-based
NR1/NR2C [4] = molecular target: T1, NR1/NR2C; assay: Maximum interval likelihood fitting of Scheme 1 to single channel data; assay type: cell-based
NR1/NR2C [5] = molecular target: T1, NR1/NR2C; assay: Least-squares fitting of Scheme 1a to macroscopic currents; assay type: cell-based
[6] = ref McBain et al., 1989; cited from earlier work
[7] = 1 s concentration jump from DCS into glutamate plus DCS
[8] = 1 mM agonist + 1 mM glutamate, 0.5 mM Ca2+
[9] = 1 mM agonist + 1 mM glutamate, 0.5 mM Ca2+, reversal potential assumed 0 mV
[10] = Figure 7B, paired recordings glycine vs DCS
[11] = average of 6 individually fitted patches
[12] = composite open time histogram from 6 patches
[13] = composite shut time histogram from 6 patches
[14] = representative recording from one patch (Figure 8B)
[15] = Table 2, Scheme I (Monte Carlo simulation of gating model)
[16] = this particular patch (Figure 8B), MIL fit Scheme 1

NR1/NR2A, sequence (Q00959 23-1464, other chains not shown): as the sequence (Q00959 23-1464, other chains not shown) above

## N[C@@H]1CON=C1O [DCS, D-cycloserine]
NR1/NR2A
  DCS Efficacy (% glycine): 90 ± 2 % glycine
NR1/NR2B
  DCS Efficacy (% glycine): 65 ± 2 % glycine
NR1/NR2C [1]; NR1/NR2C, relative to maximal glycine (100 μM), 100 μM glutamate
  DCS Efficacy (% glycine): 190 ± 6 % glycine and 190 % glycine
NR1/NR2D
  DCS Efficacy (% glycine): 94 ± 2 % glycine
NR1(R523A)/NR2B
  DCS Efficacy (% glycine): 31±2 % glycine
NR1(R523A)/NR2C
  DCS Efficacy (% glycine): 254±20 % glycine
NR1/NR2B(R693A)
  DCS Efficacy (% glycine): 68 ± 3 % glycine
NR1/NR2C(R703A)
  DCS Efficacy (% glycine): 190 ± 4 % glycine
NR1/NR2A(E798Q)
  DCS Efficacy (% glycine): 90 ± 2 % glycine
NR1/NR2B(E790Q)
  DCS Efficacy (% glycine): 78 ± 1 % glycine
NR1/NR2C(Q800E)
  DCS Efficacy (% glycine): 130 ± 4 % glycine
NR1/NR2D(E791Q)
  DCS Efficacy (% glycine): 110 ± 1 % glycine
NR1/NR2B(E790A)
  DCS Efficacy (% glycine): 68 ± 3 % glycine
NR1/NR2C(Q800A)
  DCS Efficacy (% glycine): 191 ± 7 % glycine
NR1(Y692A)/NR2A
  DCS Efficacy (% glycine): 77 ± 1 % glycine
NR1(Y692A)/NR2B
  DCS Efficacy (% glycine): 46 ± 1 % glycine
NR1(Y692A)/NR2C
  DCS Efficacy (% glycine): 59 ± 2 % glycine
NR1(Y692A)/NR2D
  DCS Efficacy (% glycine): 75 ± 1 % glycine
NR1(R755A)/NR2C
  DCS Efficacy (% glycine): 100 % glycine and 100 ± 5 % glycine
NR1/NR2C(S707N,R710P)
  DCS Efficacy (% glycine): 190 ± 7 % glycine
NR1(E781A)/NR2B
  DCS Efficacy (% glycine): 10 ± 1 % glycine
NR1(E781A)/NR2C
  DCS Efficacy (% glycine): 150 ± 10 % glycine
NR1/NR2C [2]; [7]
  Rise time: 3.8 ± 0.7 ms
  glutamate deactivation time course: 242 ± 50 ms
NR1/NR2C [2]; Table 3, Experimental
  Deactivation: 130 to 160 ms
  Desensitization (τ1): 32 ms
  Desensitization (τ2): 540 ms
  Rise time: 3.1 to 4.9 ms
NR1/NR2C [3]; [8]
  area of larger conductance level: 72 ± 8%
  area of smaller conductance level: 28 ± 5%
NR1/NR2C [3]; [9]
  conductance level (larger): 45 ± 5 pS
  conductance level (smaller): 28 ± 3 pS
NR1/NR2C [3]; 1 mM agonist + 1 mM glutamate, 6 one-channel patches
  mean duration of all open periods: 0.61 ± 0.06 ms
NR1/NR2C [3]; 1 mM agonist + 1 mM glutamate, patches with a single active channel
  open probability (Po): 0.029 ± 0.006
NR1/NR2C [3]; DCS vs glycine, paired patches
  mean open time, % of control (glycine): 132%
  open probability, % of control (glycine): 163%
NR1/NR2C [3]; [10]
  mean open time increased by, in the presence of DCS: 131 ± 4%
  open probability increased by, in the presence of DCS: 194 ± 33%
NR1/NR2C [3]; Table 2, Experimental
  MOT (mean open time): 0.57 ms
NR1/NR2C [3]; Table 3, Experimental
  Steady state Po: 0.028
NR1/NR2C [3]; [11]
  area of shut τ2: 10%
  area of shut τ3: 30%
  area of shut τ4: 36%
  area of shut τ5: 5%
  shut time constant τ1: 0.04 ± 0.005 ms
  shut time constant τ2: 0.55 ± 0.16 ms
  shut time constant τ3: 8.5 ± 1.2 ms
  shut time constant τ4: 34 ± 4 ms
  shut time constant τ5: 220 ± 79 ms
NR1/NR2C [3]; [12]
  area of open time τ1: 49%
  area of open time τ2: 51%
  open time constant τ1: 0.32 ms
  open time constant τ2: 0.76 ms
NR1/NR2C [3]; [13]
  area of shut τ2: 10%
  area of shut τ3: 36%
  area of shut τ4: 32%
  area of shut τ5: 3%
  shut time constant τ1: 0.037 ms
  shut time constant τ2: 0.48 ms
  shut time constant τ3: 9.5 ms
  shut time constant τ4: 36 ms
  shut time constant τ5: 248 ms
NR1/NR2C [3]; [14]
  apparent mean open time: 0.52 ms
  open probability: 0.026
NR1/NR2C [4]; MIL fit Scheme 1, six patches
  d1+: 1.2 ± 0.4 s⁻¹
  d1−: 4.2 ± 1.0 s⁻¹
  d2+: 25 ± 8 s⁻¹
  d2−: 38 ± 7 s⁻¹
  k1+: 420 ± 80 s⁻¹
  k1−: 1270 ± 340 s⁻¹
  k2+ (forward rate of the fast gating step): 1395 ± 215 s^−1 and 1395± 215 ^* s^−1
  k2−: 17510 ± 2135 s⁻¹
  k3+: 4795 ± 815 s⁻¹
  k3− (closing rate): 2150 ± 210 s^−1 and 2150 ± 210 ^* s^−1
  k4+: 75 ± 35 s⁻¹
  k4−: 1070 ± 130 s⁻¹
NR1/NR2C [4]; [15]
  MOT (mean open time): 0.61 ms
  Po: 0.029
NR1/NR2C [4]; goodness of MIL fit of Scheme 1
  LL/event (log likelihood per event): 4.86 ± 0.05
NR1/NR2C [4]; [16]
  rate constant k2+: 2150 s⁻¹
  rate constant k3−: 2388 s⁻¹
NR1/NR2C [5]; Scheme Ia
  Deactivation: 245 ms
  Desensitization (τ1): 15 ms
  Desensitization (τ2): 130 ms
  Peak Po: 0.042
  Rise time: 2.4 ms
  Steady state Po: 0.030
NR1/NR2C [5]; Scheme Ia macroscopic fit
  Residual (normalized residual sum of squares): 2.67 × 10^−3
  d1+: 1.4 s⁻¹
  d1−: 5.7 s⁻¹
  d2+: 6.7 s⁻¹
  d2−: 16 s⁻¹
NR1/NR2C [5]; glutamate binding step, Scheme Ia, with the labelled NR1 agonist
  b+ (agonist binding rate): 560000 M⁻¹ s⁻¹
NR1/NR2C [5]; glutamate unbinding step, Scheme Ia, with the labelled NR1 agonist
  b− (unbinding rate): 3.4 s⁻¹
[6]
  pKa for exocyclic amine: 7.5
  pKa for the exocyclic oxygen: 4.5

## N[C@@H](CCC(=O)O)C(=O)O [glutamate]
NR1/NR2C [1]; read-out: EC50 for glutamate
  EC50: 420 ± 40 nM

From publication PMC2862277 (The Journal of neuroscience : the official journal of the …, 2010)
